Assays:
chymotrypsin = chymotrypsin (Bos taurus, UniProt P00766); test: Inactivation of chymotrypsin by biotin-isocoumarins (incubation method); format: biochemical, bovine; conditions: pH 7.5, inhibitor 20-400 μM; 0.1 M Hepes, 0.5 M NaCl, pH 7.5, 5-10% Me2SO, 25° C.; two values given for some compounds; read-out: kobs/[I] Chymotrypsin
Protocol: (§1) Inactivation rates of serine proteases by substituted isocoumarins were measured by the incubation method. An aliquot of inhibitor (25 or 50 μl) in Me2 SO was added to a buffered enzyme solution (0.01-2.3 μM) to initiate the inactivation. Aliquots (50-100 μl) were withdrawn at various intervals and the residual enzymatic activity was measured. Me2 SO concentration in the reaction mixture was 8-12% (v/v). 0.1M Hepes, 0.5M NaCl, pH 7.5 buffer was utilized for the assays of chymotrypsin, cathepsin G (cat G), porcine pancreatic elastase (PPE), human leukocyte elastase (HLE) and rat granule serine proteases. 0.1M Hepes, 0.01M CaCl2, pH 7.5 buffer was utilized for the assays of trypsin and human recombinant (HR) granzyme A. The inhibitor concentrations are shown in the Tables I and II. Peptide nitroanilides with appropriate sequence were used as substrates for various serine proteases. All peptide 4-nitroanilide hydrolysis was measured at 410 nm (ε410 =8800M^-1 cm^-1; Erlanger et al., Arch. Biochem. Biophys. 95, pp 271-278 (1961), incorporated herein by reference). Peptide thioester hydrolysis rates were measured with assay mixtures containing 4,4'-dithiodipyridine (ε324 =19800M^-1 cm^-1; Grasetti & Murray, Arch. Biochem. Biophys. 119, pp. 41-49 (1967), incorporated herein by reference). First order inactivation rate constant (kobs) were obtained from plots of ln (vt /vo) vs time, and the correlation coefficients were greater than 0.98.
(§2) ^a Inhibition was measured in 0.1 M Hepes, 0.5 M NaCl (or 0.01 M
(§3) CaCl2), pH 7.5 buffer, 5-10% Me2 SO and at 25° C.
(§4) SucVal-Pro-NA (0.48 mM) was used as the substrate for chymotrypsin and ca
^b Inhibitor concentrations were 20-400 μM.

cathepsin G (cat G) = target: T1, cathepsin G (cat G) (Homo sapiens, UniProt P08311); test: Inactivation of cathepsin G by biotin-isocoumarins (incubation method); format: biochemical; conditions: inhibitor 75-400 μM; pH 7.5, 25° C.; NI = no inhibition after 10 min of incubation; read-out: kobs/[I] Cat. G
T1 sequence (P08311 21-255): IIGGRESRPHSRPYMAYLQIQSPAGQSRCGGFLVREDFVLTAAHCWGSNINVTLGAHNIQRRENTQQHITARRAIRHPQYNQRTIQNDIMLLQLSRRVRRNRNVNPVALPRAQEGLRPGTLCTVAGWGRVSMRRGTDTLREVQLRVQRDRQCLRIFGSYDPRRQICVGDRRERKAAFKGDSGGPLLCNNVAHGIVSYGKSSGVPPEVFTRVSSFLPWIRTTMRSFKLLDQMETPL
Protocol: as §1, §2, §3, §4
(§5) G. MeOSuc-Ala-Ala-Pro-Val-NA (0.24-0.47 mM) and SucAla-Ala-Ala-NA
^c Inhibitor concentrations were 75-400 μM.
(§6) ^h No inhibition after 10 min of incubation of inhibitor and enzyme.
(§7) ^i Percentage of inhibition after 10 min of incubation of inhibitor

[1] = target: T2, human leukocyte elastase (HLE) (Homo sapiens, UniProt P08246); test: Inactivation of human leukocyte elastase by biotin-isocoumarins (incubation method); format: biochemical; conditions: inhibitor 1.6-210 μM; pH 7.5, 25° C.; read-out: kobs/[I] HLE
T2 sequence (P08246 30-267): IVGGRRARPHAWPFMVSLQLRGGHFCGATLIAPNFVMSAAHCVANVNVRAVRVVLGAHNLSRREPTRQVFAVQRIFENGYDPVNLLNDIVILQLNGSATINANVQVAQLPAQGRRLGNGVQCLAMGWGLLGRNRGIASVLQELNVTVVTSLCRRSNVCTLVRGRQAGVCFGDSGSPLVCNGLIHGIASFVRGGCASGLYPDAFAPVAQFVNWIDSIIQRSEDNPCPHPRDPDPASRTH
Protocol: as §1, §2, §3, §5
(§8) (0.29-0.48 mM) were used as the substrate for HLE and PPE respectively.
^d Inhibitor concentrations were 1.6-210 μM.

[2] = target: porcine pancreatic elastase (PPE) (Sus scrofa, UniProt P00772); test: Inactivation of porcine pancreatic elastase by biotin-isocoumarins (incubation method); format: biochemical; conditions: inhibitor 38-78 μM; pH 7.5, 25° C.; NI = no inhibition after 10 min of incubation; read-out: kobs/[I] PPE
Chain of porcine pancreatic elastase (PPE) (P00772 27-266): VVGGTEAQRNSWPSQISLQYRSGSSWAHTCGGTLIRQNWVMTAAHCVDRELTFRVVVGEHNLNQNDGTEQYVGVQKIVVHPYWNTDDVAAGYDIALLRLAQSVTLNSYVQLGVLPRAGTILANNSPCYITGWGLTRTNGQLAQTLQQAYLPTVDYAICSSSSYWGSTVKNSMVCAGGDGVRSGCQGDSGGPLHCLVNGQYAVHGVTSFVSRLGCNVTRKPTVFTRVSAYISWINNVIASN
Protocol: as §1, §2, §3, §5, §8
^e Inhibitor concentrations were 38-78 μM.
as §6

trypsin [3] = target: T3, trypsin (Bos taurus, UniProt P00760); test: Inactivation of trypsin by biotin-isocoumarins (incubation method); format: biochemical; conditions: inhibitor 41-42 μM; 0.1 M Hepes, 0.01 M CaCl2, pH 7.5, 25° C.; read-out: kobs/[I] Trypsin
T3 sequence (P00760 24-246): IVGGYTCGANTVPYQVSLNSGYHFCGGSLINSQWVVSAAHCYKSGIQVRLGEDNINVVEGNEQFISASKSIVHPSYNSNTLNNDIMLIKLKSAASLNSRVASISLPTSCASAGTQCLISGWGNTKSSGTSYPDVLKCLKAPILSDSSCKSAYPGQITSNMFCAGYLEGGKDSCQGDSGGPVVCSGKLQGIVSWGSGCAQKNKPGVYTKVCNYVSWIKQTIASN
Protocol: as §1, §2, §3
(§9) ZGlu-Phe-Arg-NA (0.032 mM) was a substrate for trypsin. ZArg-SBzl (0.120
^f Inhibitor concentrations were 41-42 μM.

PPE [4] = target: T4, PPE (Sus scrofa, UniProt P00772); test: Reactivation of inhibited PPE in buffer and with NH2OH; format: biochemical, porcine; conditions: for % of Enzyme Activity Reactivated, PPE +NH2OH: 0.4 M NH2OH, immediately after addition; for % of Enzyme Activity Reactivated, PPE in buffer: after removal of excess inhibitor, 25° C. for two days, 2880 min
T4 sequence (P00772 27-266): as the sequence (P00772 27-266) above
Protocol: (§10) ^a Inhibition was performed at 0.1 M Hepes, 0.5 M NaCl, pH 7.5 buffer
(§11) 10% Me2 SO and 25° C. Reactivation was carried out in the
presence of 0.4 M of NH2 OH, and occurred immediately after the
(§12) ^b Enzyme activity was measured after removal of excess inhibitor by
(§13) centrifugation at 0° C. with centricon10 microconcentrator and
(§14) staying at 25° C. for two days.

trypsin [5] = target: T3, trypsin; test: Reactivation of inhibited trypsin in buffer; format: biochemical; conditions: after removal of excess inhibitor, 25° C. for two days
Protocol: as §10, §11, §12, §13, §14

PPE [6] = target: T4, PPE; test: Effect of streptavidin and avidin on reactivation of inhibited PPE; format: biochemical, porcine; conditions: monitored for two days
Protocol: ^a Percentage of regained enzymatic activity was measured in 0.1 M
Hepes, 0.5 M NaCl, pH 7.5 buffer, 8% Me2 SO and at 25° C.
Excess inhibitor was removed from enzymeinhibitor mixture by
centrifugation twice with Amicon microconcentrator10. Then 3-4 units of
avidin or strepavidin was added and enzymatic activity was monitored for […]

[7] = target: T5, human recombinant (HR) granzyme A (Homo sapiens, UniProt P12544); test: Inactivation of human recombinant granzyme A by biotin-isocoumarins (incubation method); format: biochemical; conditions: inhibitor 160-210 μM, pH 7.5, 25° C.
T5 sequence (P12544 29-262): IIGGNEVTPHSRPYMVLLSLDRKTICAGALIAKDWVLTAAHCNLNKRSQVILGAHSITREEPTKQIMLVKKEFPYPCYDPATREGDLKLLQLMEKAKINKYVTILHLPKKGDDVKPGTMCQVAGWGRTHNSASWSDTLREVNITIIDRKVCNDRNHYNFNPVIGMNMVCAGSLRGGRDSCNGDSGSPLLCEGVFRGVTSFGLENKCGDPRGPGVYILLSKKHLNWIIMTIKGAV
Protocol: as §1, §2, §3, §9
mM) was a substrate for human recombinant (HR) granzyme A.
^g Inhibitor concentrations were 160-210 μM.
as §6, §7

kinact/KI (chymotrypsin) [M⁻¹ s⁻¹]	kinact/KI (cathepsin G (cat G)) [M⁻¹ s⁻¹]	kinact/KI [1] [M⁻¹ s⁻¹]	kinact/KI [2] [M⁻¹ s⁻¹]	kinact/KI (trypsin [3]) [M⁻¹ s⁻¹]	% of Enzyme Activity Reactivated, PPE +NH2OH (PPE [4]) [%]	% of Enzyme Activity Reactivated, PPE in buffer (PPE [4]) [%]	% of Enzyme Activity Reactivated, Trypsin in buffer (trypsin [5]) [%]	% of Regained Enzyme Activity, PPE, +Avidin (PPE [6]; 3-4 units avidin, 2880 min) [%]	% of Regained Enzyme Activity, PPE, +Streptavidin (PPE [6]; 3-4 units streptavidin, 2880 min) [%]	% of Regained Enzyme Activity, PPE, Buffer (PPE [6]; pH 7.5, 8% Me2SO, 25° C.) [%]	Percentage of inhibition of HR Granzyme A after 10 min of incubation of inhibitor and enzyme [7] [%]	SMILES
260	3.3	76700	350	10.6	90	37	33	32	43	37	–	CCCOc1oc(=O)c2cc(NC(=O)CCCCCNC(=O)CCCC[C@@H]3SC[C@@H]4NC(=O)N[C@@H]43)ccc2c1Cl [Compound 4, 7-(6-biotinylaminocaproyl)amino-4-chloro-3-propoxyisocoumarin]
260	59	96000	520	16.6	93	66	92	–	–	–	26	CCOc1oc(=O)c2cc(NC(=O)CCCCCNC(=O)CCCC[C@@H]3SC[C@@H]4NC(=O)N[C@@H]43)ccc2c1Cl [Compound 5, 7-(6-biotinylaminocaproyl)amino-4-chloro-3-ethoxyisocoumarin]
